Test results reported in patent publication US20080312435A1, “Imine Compound” (TAISHO PHARMACEUTICAL CO., LTD., priority 2004, published 2008).
pIC50: −log10 of the molar value.

Legend:
human CB2 receptor = molecular target: T1, human CB2 receptor (Homo sapiens, UniProt P34972); experiment: Human CB2 receptor binding inhibition test ([3H]CP-55,940, CHO membrane fractions); conditions: [3H]CP-55,940, membrane fractions of CHO cells stably expressing human CB2 receptor, 25° C., 2 hours; read-out: CB2 IC50 (Inhibition of binding to human CB2 receptor)
T1 construct: expressed in transfected cells
T1 sequence (P34972 whole entry): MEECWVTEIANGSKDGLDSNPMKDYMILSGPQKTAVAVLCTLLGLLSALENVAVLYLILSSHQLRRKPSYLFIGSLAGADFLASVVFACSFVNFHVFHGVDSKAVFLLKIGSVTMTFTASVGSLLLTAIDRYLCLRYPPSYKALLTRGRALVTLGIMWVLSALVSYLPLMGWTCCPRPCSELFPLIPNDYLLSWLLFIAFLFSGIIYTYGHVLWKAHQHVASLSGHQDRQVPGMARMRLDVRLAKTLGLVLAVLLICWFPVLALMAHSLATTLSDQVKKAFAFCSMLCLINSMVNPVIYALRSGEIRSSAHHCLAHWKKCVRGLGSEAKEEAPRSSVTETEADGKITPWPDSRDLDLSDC
From the text: Human CB2 Receptor Binding Inhibition Test
First, cDNA sequence (Munro et al., Nature, 1993, 365, 61-65) encoding a human CB2 receptor was inserted in the forward direction in an animal-cell expression vector, pTARGET Vector (manufactured by Promega) at a region downstream of a CMV promoter. Host cells CHO-DHFR(−) were transfected with the obtained expression vector with the aid of Lipofectamine (manufactured by Invitrogen) to obtain cells capable of stably expressing the CB2 receptor.
After the filtrate was washed with an assay buffer containing 0.1% bovine serum albumin, the radioactivity on the glass filter was measured by a liquid scintillation counter. Nonspecific binding was measured in the presence of 2.0 μM CP-55,940 (manufactured by Tocris). 50% inhibitory concentration (IC50 value) of the test compound for the specific binding was obtained.

Structure (SMILES) | pIC50 (human CB2 receptor) | melting point
Cc1c(C(C)(C)C)s/c(=N\C(=O)c2cc(C(F)(F)F)ccc2F)n1CC1CC1 [compound 251] | 8.47 | 113 to 115 °C
CCOCCn1/c(=N/C(=O)c2cccc(C(F)(F)F)c2C)cc(C(C)(C)C)n1C [compound 489] | 8.22 | 132 to 133 °C
CCn1c(C)c(C(C)(C)C)s/c1=N\C(=O)c1cc(F)c(Cl)cc1Cl [compound 160] | 8.07 | 112 to 114 °C
Cc1c(C(C)(C)C)s/c(=N/C(=O)c2cnccc2C(F)(F)F)n1CC1CC1 [compound 298] | 8.82 | 74 to 76 °C
Cc1c(C(C)(C)C)s/c(=N\C(=O)c2cccc(Cl)c2F)n1C [compound 129] | 8.15 | 203 to 205 °C
O=C(/N=c1\cccc(Cl)n1CC1CC1)c1cccc(C(F)(F)F)c1F [compound 35] | 8.47 | 81 to 83 °C
Cc1c(C(C)(C)C)s/c(=N\C(=O)C(F)(F)C(F)(F)C(F)(F)F)n1CC1CC1 [compound 336] | 8.54 | 147 to 148 °C
Cc1ccc(C(=O)/N=c2\sc(C(C)(C)C)c(C)n2CC2CC2)c(F)c1F [compound 287] | 7.87 | 122 to 124 °C
Cc1c(C(C)(C)C)s/c(=N\C(=O)c2cc(Br)ccc2OC(F)F)n1CC1CC1 [compound 266] | 9.10 | 169 to 170 °C
CCOc1ccc(OCC)c(C(=O)/N=c2\sc(C(C)(C)C)c(C)n2CC2CC2)c1 [compound 238] | 8.36 | 97 to 99 °C
CCn1c(C)c(C(C)(C)C)s/c1=N\C(=O)c1cc(I)ccc1F [compound 157] | 7.92 | 87 to 89 °C
CCn1c(C)c(C(C)(C)C)s/c1=N\C(=O)c1ccc(C)cc1Br [compound 163] | 7.83 | 100 to 102 °C
COCCCn1c(C)c(C)s/c1=N\C(=O)c1cccc(C(F)(F)F)c1F [compound 105] | 8.77 | 104 to 106 °C
Cc1nc(F)ccc1C(=O)/N=c1\sc(C(C)(C)C)c(C)n1CC1CC1 [compound 316] | 8.28 | 67 to 69 °C
CCn1c(C)c(C(C)(C)C)s/c1=N\C(=O)c1ccccc1C(F)(F)F [compound 151] | 8.49 | 74 to 76 °C
COc1ccc(F)cc1C(=O)/N=c1\sc(C)c(C)n1CC1CC1 [compound 96] | 8.11 | 107 to 109 °C
COCCn1c(C)c(C(C)(C)C)s/c1=N\C(=O)c1cc(F)c(Cl)cc1Cl [compound 349] | 8.72 | 161 to 163 °C
Cc1c(C(C)(C)C)s/c(=N\C(=O)c2ccccc2Cl)n1C [compound 119] | 7.73 | 119 to 121 °C
CCn1c(C)c(C(C)(C)C)s/c1=N\C(=O)c1cc(F)ccc1C(F)(F)F [compound 164] | 8.39 | 103 to 104 °C
Cc1s/c(=N\C(=O)c2ccccc2C(F)(F)F)n(CC2CC2)c1C [compound 74] | 8.34 | 125 to 127 °C
Cc1s/c(=N\C(=O)CC2CCCC2)n(CC2CC2)c1C [compound 100] | 8.15 | 108 to 109 °C
COCCn1c(C)c(C(C)(C)C)s/c1=N\C(=O)C(F)(F)C(F)(F)C(F)(F)F [compound 338] | 8.04 | 69 to 71 °C
Cc1c(C(C)(C)C)s/c(=N\C(=O)c2ccc(F)cc2F)n1CC1CC1 [compound 224] | 7.89 | 111 to 112 °C
CCn1c(C)c(C(C)(C)C)s/c1=N\C(=O)c1cc(Cl)ccc1OC [compound 167] | 8.34 | 108 to 109 °C
Cc1c(C(C)(C)C)s/c(=N\C(=O)c2cccc(N(C)C)c2)n1CC1CC1 [compound 201] | 7.72 | 128 to 130 °C
O=C(/N=c1\cc(Cl)ccn1CC1CC1)c1cccc(C(F)(F)F)c1F [compound 33] | 8.09 | 91 to 93 °C
Cc1c(C(C)(C)C)s/c(=N\C(=O)c2cccc(C(F)(F)F)c2F)n1C [compound 141] | 7.86 | 176 to 178 °C
CNc1ccccc1C(=O)/N=c1\sc(C(C)(C)C)c(C)n1CC1CC1 [compound 200] | 7.82 | 158 to 159 °C
CCn1c(C)c(C(C)(C)C)s/c1=N\C(=O)c1ccc(Cl)cc1C [compound 162] | 7.92 | 125 to 126 °C
Cc1cc(Cl)ccc1C(=O)/N=c1\sc(C(C)(C)C)c(C)n1CC1CC1 [compound 242] | 8.40 | 108 to 109 °C
